Measured values published in paper PMC5762535, “Novel indazole-based small compounds enhance TRAIL-induced apoptosis by inhibiting the MKK7-TIPRL interaction in hepatocellular carcinoma” (Oncotarget, 2017).
Read-outs that look alike come from different tables or passages of the source.

Columns and labels:
[1] = system: HepG2 cells; test: MTT cell viability assay, HepG2 cells; format: cell-based, human; conditions: 10 µM TRT-0029 or 20 µM TRT-0173 plus TRAIL 100 ng/ml, 24 h
Protocol: (§1) Cell viability was assessed using a 3-(4,5-dimethylthiazol-2-yl)-2,5-diphenyltetrazolium bromide (MTT, Sigma-Aldrich, St. Louis, USA) assay. The cells were seeded at a density of 1 × 10^4 cells per well and treated with the lead compounds and/or TRAIL. After 24 or 48 h, MTT (2 mg/ml) was added to each well, and the absorbance was measured using a microplate reader (Bio-Rad, Hercules, USA) at 570 nm. The cell viability was calculated as the percentage of viable cells in the drug-treated group versus the untreated control using the following equation: cell viability (%) = [OD (drug)-OD (blank)]/[OD (control)-OD (blank)] × 100.

[2] = system: Huh7 tumor xenografts; test: In vivo Huh7 xenograft assay; parameters: species or system BALB/c nude mice
Source text: Five-week-old female BALB/c nude mice were purchased from SLC Japan and were maintained in accordance with the guidelines of the Institutional Review Committee for Animal Care and Use of the Korea Research Institute of Bioscience and Biotechnology. Protocol approval was obtained from the same committee.
Huh7 cells were harvested and subcutaneously injected (5 × 10^6 cells/mouse) into nude mice (N = 6/group for TRT-0173 or TRT-0029 experiments). When the tumor volume reached ~100 mm^3, the mice were divided into four groups and treated with vehicle, TRAIL (2.5 mg/kg, intraperitoneal), lead compound (TRT-0029 or TRT-0173, 30 mg/kg, intravenously), or lead compound (30 mg/kg, intravenously) combined with TRAIL (2.5 mg/kg, intraperitoneal) daily for 11 days (11 treatments in total). The tumor volumes were measured every 2 days for 11 days after treatment, and tumor volume was calculated according to the following equation: V (mm^3) = width^2 (mm^2) × length (mm)/2. Body weight and tumor mass were measured 11 days after treatment.

[3] = system: caspase-3 and PARP; test: Western blot of cleaved caspase-3 and PARP in Huh7 cells; format: cell-based, human; conditions: lead compounds co-treated with TRAIL 100 ng/ml, TRAIL tested alone
Protocol: The cells were lysed in lysis buffer (50 mM Tris-HCl, pH 7.4, 150 mM NaCl, 1% Triton™ X-100, 0.1% SDS, 1 mM EDTA, 1 mM Na3VO4, 1 mM NaF, and protease inhibitor cocktail) and clarified by centrifugation at 14,000×g for 20 min at 4°C. The protein samples were then subjected to Western blotting with the indicated antibodies.

[4] = system: caspase-3; test: Caspase 3 activity assay in Huh7 cells; format: cell-based, human; conditions: each compound at its working concentration and time of the table
Protocol: The caspase 3 activity was measured using a caspase-3 luminescent assay kit (Promega, Madison, WI, USA), according to the manufacturer's instructions, and a luminescence plate reader (Molecular Devices Co., Sunnyvale, USA).

[5] = system: Huh7 cells; test: MTT cell viability assay, Huh7 cells; format: cell-based, human
Protocol: as §1

[6] = MTT cell viability assay, Huh7 cells; format: cell-based, human; conditions: human, Huh7 cells; Huh7, MTT, 10 µM, 24 hrs, without TRAIL; Supplementary Table 3; read-out: Cell viability assay Compound only
Protocol: as §1

[7] = Pharmacokinetics in rats; format: in vivo, Sprague-Dawley rats; conditions: rat; for AUC: male, Sprague-Dawley, plasma, after 24 h
Protocol: Male Sprague-Dawley rats anesthetized with ketamine were cannulated with polyethylene tubing in the femoral vein. A solution of lead compound (TRT-0029 or TRT-0173) was prepared by dissolving the compounds in a mixture of dimethyl sulfoxide (DMSO)/ polyethylene glycol 400 (PEG 400)/ distilled water (0.5: 4: 5.5), and was administered to rats by a bolus injection in the femoral vein. Blood samples were collected via the femoral vein 0, 2, 10, and 30 min, as well as 1, 2, 4, 6, 8, and 24 h after intravenous administration. For oral administration, blood was collected 0.25, 0.5, 1, 2, 4, 6, 8, and 24 h after treatment. The plasma fractions were prepared by centrifugation and were stored at −70°C before the liquid chromatography-tandem mass spectrometry (LC/MS/MS) analysis. The concentrations of target compound in the plasma were measured using LC-MS/MS (4000 QTRAP, AB SCIEX, Foster City, CA) in multiple reaction monitoring (MRM) mode. The PK parameters were determined with non-compartmental methods using Phoenix WinNolin (Pharsight, Mountain View, CA). The area under the plasma concentration-time curve (AUC) was calculated using the trapezoidal rule extrapolated to infinity. The terminal elimination half-life (t1/2), and the systemic clearance (CL) were obtained. The peak plasma concentration (Cmax) after oral administration was obtained by visual inspection of the plasma concentration-time plot of each rat.

[8] = biological target: T1, MKK7-TIPRL interaction (Homo sapiens, UniProt O14733+O75663); test: GST pull-down assay of MKK7-TIPRL in 293T cells; format: cell-based; conditions: 10 μM TRT-0029 or 20 μM TRT-0173, 24 h
T1 sequence (O14733 1-419): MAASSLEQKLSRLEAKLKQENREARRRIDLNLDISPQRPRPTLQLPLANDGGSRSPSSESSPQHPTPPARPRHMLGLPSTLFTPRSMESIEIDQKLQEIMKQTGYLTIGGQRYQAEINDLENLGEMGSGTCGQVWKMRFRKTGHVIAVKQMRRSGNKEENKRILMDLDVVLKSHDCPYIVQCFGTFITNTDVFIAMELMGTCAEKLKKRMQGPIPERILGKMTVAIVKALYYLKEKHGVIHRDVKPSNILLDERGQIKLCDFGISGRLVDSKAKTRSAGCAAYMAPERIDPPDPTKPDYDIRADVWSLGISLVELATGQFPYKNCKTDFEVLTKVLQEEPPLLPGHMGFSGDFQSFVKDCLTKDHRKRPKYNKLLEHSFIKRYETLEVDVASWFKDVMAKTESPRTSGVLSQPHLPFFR
T1 sequence (O75663 1-272): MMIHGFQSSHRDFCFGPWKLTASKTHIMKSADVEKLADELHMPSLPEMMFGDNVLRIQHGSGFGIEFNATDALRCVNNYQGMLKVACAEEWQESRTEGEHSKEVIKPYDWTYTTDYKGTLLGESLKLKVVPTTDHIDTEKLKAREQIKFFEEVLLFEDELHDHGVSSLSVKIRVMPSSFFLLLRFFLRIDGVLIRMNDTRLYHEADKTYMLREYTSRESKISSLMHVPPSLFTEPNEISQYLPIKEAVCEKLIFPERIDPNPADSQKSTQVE
Protocol: The full-length cDNAs of human TIPRL and MKK7 were subcloned into the pCGN vector (W. Herr, Cold Spring Harbor Laboratory) and the pEBG vector containing a GST tag to construct the HA-tagged and the GST-tagged plasmids, respectively. 293T cells were transfected with expression vector constructs using the TurboFect Transfection Reagent (Thermo Fisher Scientific, Lafayette, USA) and then were lysed in RIPA buffer (50 mM Tris-HCl, 150 mM NaCl, 1% Triton™ X-100, 0.1% SDS, 1 mM EDTA, 1 mM Na3VO4, and 1 mM NaF) containing complete protease inhibitor cocktail (Roche Applied Science, Indianapolis, USA). Whole-cell extracts were incubated with Glutathione Sepharose 4B (GE Healthcare, Uppsala, Sweden), and the eluted GST-tagged proteins were subjected to Western blotting using the indicated antibodies.

AUC ([7]; iv, i.v. 5 mg/kg, read-out: AUC (i.v.)): 4270 ng·h/mL | AUC ([7]; po, p.o. 5 mg/kg, read-out: AUC (p.o.)): 1150 ng·h/mL | oral availability ([7]; 5 mg/kg i.v. and p.o.): 26.8% | interaction between MKK7 and TIPRL in GST pull-down assay, compared with untreated cells [8]: significantly decreased the interaction
SMILES: COc1ccc(S(=O)(=O)Nc2ccc3c(cnn3-c3ccc(F)cc3)c2)cc1 [TRT-0173]
decrease of HepG2 viability by co-treatment with TRAIL [1]: 53% | tumor volume / tumor growth at 11 days, compound + TRAIL compared with compound alone ([2]; compound 30 mg/kg i.v. plus TRAIL 2.5 mg/kg i.p. daily): moderately inhibited tumor growth | reduction of average tumor mass, lead compound + TRAIL ([2]; compound 30 mg/kg i.v. plus TRAIL 2.5 mg/kg i.p. daily for 11 days, versus vehicle control): 42.2% | apoptosis signals (cleaved caspase-3, PARP) by Western blotting [3]: activated apoptosis signals | Caspase 3 activity Compound + TRAIL/Compound [4]: 2.10 ratio | reduction of cell viability of Huh7 cells by co-treatment with TRAIL, compared to TRAIL alone ([5]; 10 μM TRT-0029 or 20 μM TRT-0173 plus TRAIL, 24 h): ~90% | viability at 10 µM ([5]; Homo sapiens, Huh-7, Huh7, MTT, 10 µM, 24 hrs, with TRAIL, Supplementary Table 3, read-out: Cell viability assay Compound + TRAIL): 7% | effective working concentration ([5]; Huh7 cells, various doses with and without TRAIL (100 ng/ml), 24 h): 20 µM | viability at 24 h, 10 µM [6]: 53%
